Experimental data published in patent publication US20230091047A1 (priority 2019, published 2023).
Where two headings read alike, the source gives them in different places.

How the values were obtained:
[1] = tested on: HBV (HepG2.117 cell line, inducibly HBV producing); assay: Anti-HBV activity: intracellular HBV DNA by real-time PCR in HepG2.117 cells after 3 days of treatment; type: cell-based, hepatitis B virus; settings: HepG2.117 cells, intracellular HBV DNA by real-time PCR, 3 days of treatment, mean value, read-out: EC50 (μM, mean value)
How it was run: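 Readout is intracellular HBV DNA, measured by real-time PCR with HBV-specific primers and probe after 3 days of exposure to serial compound dilutions. Cells are the stable HepG2.117 line, where HBV replication is induced in the absence of doxycycline.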

[2] = in vitro; type: cell-based; settings: human, HepG2 or HepG2.117 cells, ATPlite, 3-days incubation (not marked with *), mean value
How it was run: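 Luminescent ATP quantitation served as the viability endpoint following a 3- or 4-day incubation with test compounds.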

[3] = Hepatitis B virus, HepG2.117, 72 h

Structure (SMILES) | EC50 [1, 3] | CC50 at 3 days [2] | EC50 [1]
CC(C)Nc1nc2c(c(=O)n1-c1ccc(-n3cccn3)cc1Cl)C[C@@H](C)N(C(=O)c1ccc(Cl)c(Cl)c1)C2 [Compound C404] | 0.13 µM | > 50 µM | 
CNC(=O)c1ccc(-n2c(NC(C)(C)c3ccccc3)nc3c(c2=O)C[C@@H](C)N(C(=O)c2ccc(Cl)c(Cl)c2)C3)cc1 [Compound C407] | 0.15 µM | 18 µM | 
CNC(=O)c1ccc(-n2c(N3CC4CC3C4)nc3c(c2=O)C[C@@H](C)N(C(=O)c2ccc(Cl)c(Cl)c2)C3)cc1 [Compound C408] | 0.05 µM | > 50 µM | 
CC(=O)Nc1ccc(-n2c(NC(C)C)nc3c(c2=O)C[C@@H](C)N(C(=O)c2ccc(Cl)c(Cl)c2)C3)cc1 [Compound C409] | 0.11 µM | > 50 µM | 
COc1ccc(C(C)Nc2nc3c(c(=O)n2-c2ccc(NC(C)=O)cc2)C[C@@H](C)N(C(=O)c2ccc(Cl)c(Cl)c2)C3)cc1 (stereo partly shown) [Compound C410] | 0.13 µM | 32.6 µM | 
CNC(=O)c1ccc(-n2c(N[C@H](C)c3ccc(OC(F)F)cc3)nc3c(c2=O)C[C@@H](C)N(C(=O)c2ccc(Cl)c(Cl)c2)C3)cc1 [Compound C411a] |  | 47.4 µM | 1.02 µM
CNC(=O)c1ccc(-n2c(NC(C)c3ccc(S(C)(=O)=O)cc3)nc3c(c2=O)C[C@@H](C)N(C(=O)c2ccc(Cl)c(Cl)c2)C3)cc1 (stereo partly shown) [Compound C412] | 1.6 µM | > 50 µM | 
CNC(=O)c1ccc(-n2c(NC(C)c3ccc(C(F)(F)F)cc3)nc3c(c2=O)C[C@@H](C)N(C(=O)c2ccc(Cl)c(Cl)c2)C3)cc1 (stereo partly shown) [Compound C413] | 0.15 µM | 6.5 µM | 
CNC(=O)c1ccc(-n2c(NC(C)C)nc3c(c2=O)C[C@@H](C)N(C(=O)c2ccc(C(F)F)c(Cl)c2)C3)cc1 [Compound C418] | 0.08 µM | > 50 µM | 
CNC(=O)c1ncc(-n2c(NC(C)C)nc3c(c2=O)C[C@@H](C)N(C(=O)c2ccc(Cl)c(Cl)c2)C3)n1C [Compound C419] | 0.19 µM | > 50 µM | 
CNC(=O)c1ccc(-n2c(NC(C)C)nc3c(c2=O)C[C@@H](C)N(C(=O)c2ccc(Cl)c(Cl)c2)C3)c(C(C)C)c1 [Compound C420] |  | 25 µM | 0.61 µM
CNC(=O)c1ccc(-n2c(Nc3cn(C)nn3)nc3c(c2=O)C[C@@H](C)N(C(=O)c2ccc(Cl)c(Cl)c2)C3)cc1 [Compound C421] | > 8.1 µM | > 50 µM | 
CNC(=O)c1ccc(-n2c(NCc3c[nH]nn3)nc3c(c2=O)C[C@@H](C)N(C(=O)c2ccc(Cl)c(Cl)c2)C3)cc1 [Compound C423] | > 7.4 µM | > 50 µM | 
CNC(=O)c1cc(-n2c(NC(C)C)nc3c(c2=O)C[C@@H](C)N(C(=O)c2ccc(Cl)c(Cl)c2)C3)n(C(C)C)n1 [Compound C424] | 0.93 µM | > 50 µM | 
CNC(=O)c1ccc(-n2c(NC(C)C)nc3c(c2=O)C[C@@H](C)N(C(=O)c2ccc(Cl)c(C(F)F)c2)C3)cc1 [Compound C427] | 0.05 µM | > 50 µM | 
CNC(=O)c1ccc(-n2c(NC(C)C)nc3c(c2=O)C[C@@H](C)N(C(=O)c2ccc(Cl)c(C(F)(F)F)c2)C3)cc1 [Compound C428] | 0.03 µM | > 50 µM | 
CNC(=O)c1ccc(-n2c(NC(C)C)nc3c(c2=O)C[C@@H](C)N(C(=O)c2ccc(Cl)c(C)c2)C3)cc1 [Compound C429] | 0.06 µM | > 50 µM | 
CC(C)Nc1nc2c(c(=O)n1-c1ccc(-n3ccnn3)cc1)C[C@@H](C)N(C(=O)c1ccc(Cl)c(Cl)c1)C2 [Compound C430] | 0.06 µM | > 50 µM | 
CNC(=O)c1ccc(-n2c(N[C@@H](C)c3ccc(C)cc3)nc3c(c2=O)C[C@@H](C)N(C(=O)c2ccc(Cl)c(Cl)c2)C3)cc1 [Compound C431] | 0.03 µM | 20.6 µM | 
CNC(=O)c1cc(-n2c(N[C@@H](C)c3ccc(F)cc3)nc3c(c2=O)C[C@@H](C)N(C(=O)c2ccc(Cl)c(Cl)c2)C3)[nH]n1 [Compound C432] | 0.1 µM | 21.4 µM | 
CNC(=O)c1ccc(-n2c(NC(C)c3cc(C)no3)nc3c(c2=O)C[C@@H](C)N(C(=O)c2ccc(Cl)c(Cl)c2)C3)cc1 (stereo partly shown) [Compound C433] | 0.33 µM | > 50 µM | 
CNC(=O)c1ccc(-n2c(NC(C)c3nccs3)nc3c(c2=O)C[C@@H](C)N(C(=O)c2ccc(Cl)c(Cl)c2)C3)cc1 (stereo partly shown) [Compound C434] | 0.57 µM | > 50 µM | 
CNC(=O)c1ccc(-n2c(NC(CC3CC3)c3ccccc3)nc3c(c2=O)C[C@@H](C)N(C(=O)c2ccc(Cl)c(Cl)c2)C3)cc1 (stereo partly shown) [Compound C437] | 0.44 µM | 28.1 µM | 
